Measurements from article PMC12040169 (PLOS Biology, 2025).

Assay: in vitro
Settings: human, hela cells, % viability

Row | Compound | viability at 28.5 h, 10 µM [%] | viability at 28.5 h, 10 µM (bulk resorufin, single well) [%]
1 | Cc1nnc(CN(CC2CCCO2)C2CCC(C)CC2)o1 (stereo not drawn) [CBK304824] | 94.7 | –
2 | COC(=O)C(CCSC)NC(=O)c1cccs1 (stereo not drawn) [CBK057972] | 94 | –
3 | CN(C)[C@H]1CCCC[C@@H]1n1c(-c2ccc(Cl)c(Cl)c2)n[nH]c1=O [CBK010566] | 114 | –
4 | COC(=O)[C@H]1CCc2ccccc2N1C(=O)C1CCC1 [CBK285478] | 100 | –
5 | CC(NC(=O)Cn1cnc2ccccc21)c1ccccn1 (stereo not drawn) [CBK281884] | 96.7 | –
6 | Cc1ccc2nc(NC(=O)c3cc(C)n(C)n3)sc2c1 [CBK287668] | 83.9 | –
7 | Cc1noc(NS(=O)(=O)c2ccc(NC(=O)CCN3C(=O)c4ccccc4C3=O)cc2)c1C [CBK264091] | 96.1 | –
8 | CSCCCN1C(=O)CN(Cc2ccccc2)C1=O [CBK162363] | 91.4 | –
9 | C/C(=N/NC(=O)C[N+](C)(C)C)c1nn(-c2ccc(Cl)cc2)nc1C [CBK008258C] | 100 | –
10 | Cc1nc2ccccn2c1-c1csc(N)n1 [CBK288628B] | 91.7 | –
11 | COc1ccccc1CNCCNC(=O)OC(C)(C)C [CBK056694] | 105 | –
12 | c1cncc(-c2nccnc2NCC2CC2)c1 [CBK037310] | 80.9 | –
13 | COCc1nnc(Sc2cc(NC(C)C)ncn2)s1 [CBK093784] | 89.3 | –
14 | CCc1c(C)nc2c(C)cccc2c1SCC(=O)O [CBK263554] | 87.6 | –
15 | COc1cc(CNc2nc(-c3c(C)cccc3C)cn3ccnc23)cc(OC)c1OC [CBK037415] | 91.1 | –
16 | CCOc1cc(C(c2c[nH]c3ccccc23)c2c[nH]c3ccccc23)ccc1OCC(=O)O [CBK264450] | 97.1 | –
17 | Cc1ccc(-c2csc(NC(=O)CN3C(=O)CCC3=O)n2)c(C)c1 [CBK287348] | 86.7 | –
18 | Cc1cc(C(=O)N2CCC(c3nccn3C)CC2)ccc1F [CBK304355] | 89.7 | –
19 | O=C(c1ccncc1)N1CCCC1(CO)Cc1ccccc1 (stereo not drawn) [CBK288620] | 96.5 | –
20 | O=C(c1cccs1)N1C[C@H](c2ccc(F)cc2)[C@H]2CN(Cc3ccc(F)cc3)CC[C@H]21 [CBK285545] | 91.3 | –
21 | CCn1cc(C(=O)O)c(=O)c2cc(F)c(N(C)CCc3ccc(OC)c(OC)c3)cc21 [CBK263070] | 97.1 | –
22 | Cc1noc(C)c1C(=O)N1CCCC(c2nc(C)n3ccsc23)C1 (stereo not drawn) [CBK285211] | 103 | –

Row | Compound | viability at 28.5 h, 10 µM [%] | viability at 28.5 h, 10 µM (bulk resorufin, single well) [%]
23 | Cc1ccc(CNC(=O)Cn2nnc(-c3ccc(CN4CCC(S(C)(=O)=O)C4)cc3)n2)cc1 (stereo not drawn) [CBK155407T] | 91.7 | –
24 | O=S(=O)(Nc1ccc2c(ccn2Cc2ccccc2)c1)c1ccc(S(=O)(=O)c2ccccc2)s1 [CBK159533] | 114 | –
25 | CSc1nc(NC(=O)c2cccs2)cc(N2CCNCC2)n1 [CBK050315T] | 89.7 | –
26 | COc1cc(-c2nccnc2NCc2ccc(OC(F)(F)F)cc2)cc(OC)c1OC [CBK038063] | 117 | –
27 | Nc1cc2ccccc2c(-c2ccc3c(c2)OCCCO3)n1 [CBK085722] | 102 | –
28 | Cc1ccnn1CCC(=O)N1CCC(c2cc3cccnc3[nH]2)CC1 [CBK284912] | 95.2 | –
29 | O=C(CCN1CCc2ccccc2C1)Nc1cccc(F)c1 [CBK264282] | 103 | –
30 | CCN(CC)CCNC(=O)c1ccc(NS(=O)(=O)c2cc(C(=O)O)ccc2OC)cc1 [CBK296962] | 103 | –
31 | O=C(Nc1ccccc1C(F)(F)F)c1ccc(-n2cnnn2)cc1 [CBK300521] | 86.8 | –
32 | O=c1[nH]c(-c2ccccc2)nc2c1CN(Cc1ccc(F)cc1)CC2 [CBK282329] | 93.3 | –
33 | COc1ccc(CN2CCC(N3CCc4ccccc4C3)CC2)cc1OCc1ccccc1 [CBK264629G] | 91.4 | –
34 | O=C(NCCSCc1c(F)cccc1Cl)Nc1cccc(Cl)c1 [CBK268574] | 98.6 | –
35 | CCOC(=O)N1CCN(S(=O)(=O)c2ccc3c(c2)oc(=O)n3C)CC1 [CBK304667] | 105 | –
36 | O=C(NCCN1CCCC1)c1ccc2nc[nH]c2c1 [CBK153311] | 86 | –
37 | Cc1ccc(NC(=O)N(Cc2ccccc2Br)CC(C)(C)CN)cc1[N+](=O)[O-] [CBK002436C] | 111 | –
38 | CCCc1ccc(S(=O)(=O)Nc2ccc(C(=O)N(CC)CC)cc2)cc1 [CBK034403] | 92.3 | –
39 | C[C@H](c1ccccc1)N1C(=O)[C@@H]2CN(C(=O)CC(C)(C)C)CCN2C1=O [CBK289638] | 89.5 | –
40 | CC(=O)N1CCN(C(=O)C[C@@H]2C[C@@H](C(C)C)[C@H](CC#N)C=C2C)CC1 [CBK289214] | 103 | –
41 | CNC(=S)NCCc1c[nH]c2ccccc12 [CBK264853] | 108 | –
42 | COc1ccc(CC(=O)N2CCC(c3cc4cnccc4[nH]3)CC2)cc1 [CBK283451] | 87.2 | –
43 | Cc1cc(C)nc(N2CCC(CC(=O)NC(C)CCN3CCCCCC3)CC2)n1 (stereo not drawn) [CBK285993] | 96.4 | –
44 | COc1cc(/C=C2\C(=O)NC(=O)N(c3ccc([N+](=O)[O-])cc3)C2=O)ccc1OCC(=O)O [CBK265418] | – | 100

Row | Compound | viability at 28.5 h, 10 µM [%] | viability at 28.5 h, 10 µM (bulk resorufin, single well) [%]
45 | C(=C\CSc1nc2ccccc2[nH]1)/CSc1nc2ccccc2[nH]1 [CBK263090] | 107 | –
46 | COc1ccc(Nc2ncnc3c2oc2ccccc23)cc1 [CBK291236] | 86.5 | –
47 | OCCN(CCO)c1cncc(-c2cccc(C(F)(F)F)c2)n1 [CBK037917] | 109 | –
48 | COc1ccc(S(=O)(=O)NCCCN2CCOCC2)c(Cl)c1Cl [CBK269792] | 95.3 | –
49 | CCOc1cccc(NC(=O)/C(C#N)=C\c2cc(C)n(-c3ccc4c(c3)OCO4)c2C)c1 [CBK263191] | 85.9 | –
50 | COc1cccc(CN2CCC3(C2)c2[nH]c4ccccc4c2CCN3Cc2cccc(OC)c2)c1 (stereo not drawn) [CBK059468] | 90.5 | –
51 | CC(C)NC(=O)c1ccc(-n2cccn2)c(C#Cc2cccnc2)c1 [CBK284523] | 94.3 | –
52 | Cc1nc(CNc2ccc3nnc(C(F)(F)F)n3n2)cs1 [CBK305674] | 91.6 | –
53 | Cc1ccc(C(O)CN2CCC(O)(c3ccc(F)cc3)CC2)cc1 (stereo not drawn) [CBK283309] | 94.5 | –
54 | Cc1cc(OCC(=O)Nc2ccccc2N2CCN(S(C)(=O)=O)CC2)ccc1Cl [CBK269410] | 103 | –
55 | Cc1nnc(CN(C)C2CCN(Cc3ccc4c(c3)CCC4)C2)n1C (stereo not drawn) [CBK304450] | 104 | –
56 | COc1cc(-c2cncc(N[C@@H](C)c3ccccc3)n2)cc(OC)c1OC [CBK065551] | 104 | –
57 | Nc1ncnc2c1nc1n2[C@@H]2O[C@H](C1)[C@H](O)C2O (stereo partly drawn) [CBK201224] | 108 | –
58 | Cc1ccc(S(=O)(=O)Oc2ccc(C(c3c(C)n[nH]c3O)c3c(C)n[nH]c3O)cc2)cc1 [CBK265305] | 104 | –
59 | O=C(CCc1nc(=O)c2c3c(sc2[nH]1)CCC3)N1CCCCCC1 [CBK306388] | 90.4 | –
60 | CN1CCN(C(=O)c2cc(Br)cnc2NCCOc2ccccc2)CC1 [CBK076231] | 92 | –
61 | O=[N+]([O-])c1ccc(S(=O)(=O)Nc2nnc(Cc3ccc(Cl)cc3)s2)cc1 [CBK200046] | 93.2 | –
62 | Cc1cc(C(=O)N2CCN(C(=O)c3ccco3)CC2)n[nH]1 [CBK144447] | 98.9 | –
63 | O=C(CN(c1ccccc1)S(=O)(=O)c1ccccc1[N+](=O)[O-])NC1CCCCC1 [CBK262328] | 89.3 | –
64 | COc1ccc(CC(=O)Nc2ccc(Nc3ccccc3)cc2)cc1 [CBK263884] | 114 | –
65 | O=CN1CCc2c([nH]c3ccccc23)C12CCN(CC1CC1)CC2 [CBK040315] | 91.8 | –
66 | Fc1cccc(-c2nc3cnccn3c2NCc2cccs2)c1 [CBK282363] | 97.5 | –

Row | Compound | viability at 28.5 h, 10 µM [%] | viability at 28.5 h, 10 µM (bulk resorufin, single well) [%]
67 | CCOc1ccc(NC(c2ccccc2)c2cc3cc(OC)ccc3[nH]c2=O)cc1 (stereo not drawn) [CBK286157] | 81.7 | –
68 | O=C(c1nc2ccccc2[nH]1)N1CCc2ccccc21 [CBK200411] | 87.8 | –
69 | Cc1ccc(Cl)cc1-n1cc(-c2ccc(Cl)cc2)nn1 [CBK113045] | 82.4 | –
70 | Cc1ccc(C(NC(=O)Cn2ccnc2)c2ccncc2)cc1C (stereo not drawn) [CBK281591] | 87.4 | –
71 | N=C1NC(=O)/C(=C/c2ccc(OC(=O)c3cccc([N+](=O)[O-])c3)cc2)S1 [CBK263606] | 100 | –
72 | O=c1[nH]nc2c3ccc(Cl)cc3ncn12 [CBK283988] | 62.3 | –
73 | CSc1cccc(NC(=O)CN(C)S(=O)(=O)c2ccc3ccccc3c2)c1 [CBK266708] | 86.2 | –
74 | CC(=O)Nc1ccc(-c2ccc(=O)n3c2[C@@H]2C[C@@H](CN(C(=O)c4ccccc4)C2)C3)cc1 [CBK289198] | 89.4 | –
75 | Cc1ccc(-c2nnc(-c3cccc(S(=O)(=O)N4CCOCC4)c3)o2)cc1 [CBK263215] | 112 | –
76 | CC1CCN(CCN2CCn3c2nc2ccccc23)CC1 [CBK265467B] | 80 | –
77 | O=[N+]([O-])c1c(N2CCN(CCO)CC2)ccc2nonc12 [CBK264397] | 96 | –
78 | COc1ccc(NC(=O)Cn2cnc3c2c(=O)n(C)c(=O)n3C)cc1Cl [CBK134216] | 95.9 | –
79 | CCN(CC)C(=O)CN1CCN(c2nccnc2Oc2ccc(OC)c(OC)c2)CC1 [CBK083051T] | 103 | –
80 | Nc1nc2cc3c(cc2[nH]1)OCO3 [CBK023191] | 96.6 | –
81 | CCCc1n[nH]c(C(C)C)c1C(=O)OCC [CBK115724] | 98.7 | –
82 | CS(=O)(=O)c1ccc(C(=O)Nc2nc(-c3ccccc3)cs2)cc1 [CBK287716] | 102 | –
83 | CC(C)[C@H](CO)Nc1nc(-c2ccc(S(C)(=O)=O)cc2)cnc1N [CBK063718] | 110 | –
84 | CC(C)(C)c1ccc(S(=O)(=O)N2CCNC(=O)C2)cc1 [CBK051238] | 88.9 | –
85 | COc1ccc2c(c1)C1(CC(=O)N(Cc3ccccc3)C1=O)C(=O)N2CCn1cnc2c1c(=O)n(C)c(=O)n2C (stereo not drawn) [CBK075478] | 93.5 | –
86 | O=C(c1ccsc1NS(=O)(=O)c1ccc2ccccc2c1)N1CCOCC1 [CBK042278] | 93.7 | –
87 | COCC(C)NC(=O)c1cc(-c2cccs2)nc2onc(C)c12 (stereo not drawn) [CBK306473] | 104 | –
